# From patent US20060241114A1, “Derivatives of azasugars as anticancer agents” (priority 2003, published 2006)
# Assays:
# [1] = system: DU145 (prostate carcinoma); test: In vitro growth inhibition screen (sulphorhodamine B), DU145; assay type: cell-based, human; settings: DU145 cells, incubated for 48 hours, sulphorhodamine B dye; read-out: GI50 (concentration which inhibits the cell growth by 50%), DU145 Prostate carcinoma
# Protocol: (§1) Each agent was tested over a broad concentration range (ten-fold dilutions starting from ≧100 μM to 10 nM) against 6 human cancer cell lines which was comprised of different tumor types. These are DU145 (prostate carcinoma), HT29 (colorectal adenocarcinoma), LOX (melanoma), MCF7 (breast adenocarcinoma), MCF7ADR (adriamycin resistant breast adenocarcinoma), and U251 (human glioblastoma). A standard compound doxorubicin was tested in each assay as a positive control. The cells were maintained in growing condition in RPMI 1640 medium containing 10% fetal calf serum and incubated at 37° C. under 5% CO2 atmosphere. All cell lines were inoculated onto a series of standard 96-well microtitre plate on day zero, followed by twenty four-hour incubation in the absence of test compound. The inoculation densities in the screen were as per Monk et al., (1991) J. Natl. Cancer Inst., 83, 757-766. All NCEs were dissolved in DMSO and diluted further in culture medium. An aliquot of each dilution was added to the growing cells in 96 well plates and incubated for 48 hours. After incubation, the assay was terminated by adding 50 μL of trichloroacetic acid (TCA) and incubating at 4° C. for 30 min. The precipitated cells were washed and stained with sulphorhodamine B dye for 30 min and the excess dye was washed off with acetic acid. Adsorbed dye was solubilised in Tris base (alkaline pH) and quantitated by measuring the OD at […] in ELISA READER. GI50 (concentration which inhibits the cell growth by 50%) was calculated according to Boyd and Paull, (1995) Drug Dev. Res., 34, 91-109.
# [2] = system: HT29 (colorectal adenocarcinoma); test: In vitro growth inhibition screen (sulphorhodamine B), HT29; assay type: cell-based, human; settings: HT29 cells, incubated for 48 hours, sulphorhodamine B dye; read-out: GI50 (concentration which inhibits the cell growth by 50%), HT29 Colorectal adenocarcinoma
# Protocol: as §1
# LOX (melanoma) = test: In vitro growth inhibition screen (sulphorhodamine B), LOX; assay type: cell-based, human; settings: LOX cells, incubated for 48 hours, sulphorhodamine B dye; read-out: GI50 (concentration which inhibits the cell growth by 50%), LOX Melanoma
# Protocol: as §1
# [3] = system: MCF7 (breast adenocarcinoma); test: In vitro growth inhibition screen (sulphorhodamine B), MCF7; assay type: cell-based, human; settings: MCF7 cells, incubated for 48 hours, sulphorhodamine B dye; read-out: GI50 (concentration which inhibits the cell growth by 50%), MCF7 Breast adenocarcinoma
# Protocol: as §1
# [4] = system: MCF7ADR (adriamycin resistant breast adenocarcinoma); test: In vitro growth inhibition screen (sulphorhodamine B), MCF7ADR; assay type: cell-based, human; settings: MCF7ADR cells, incubated for 48 hours, sulphorhodamine B dye; read-out: GI50 (concentration which inhibits the cell growth by 50%), MCF7ADR Adriamycin Resistant Breast adenocarcinoma
# Protocol: as §1
# [5] = system: U251 (human glioblastoma); test: In vitro growth inhibition screen (sulphorhodamine B), U251; assay type: cell-based; settings: U251 cells, incubated for 48 hours, sulphorhodamine B dye; read-out: GI50 (concentration which inhibits the cell growth by 50%), U251 Human glioblastoma astrocytoma
# Protocol: as §1
GI50 [1] [µM],GI50 [2] [µM],GI50 (LOX (melanoma)) [µM],GI50 [3] [µM],GI50 [4] [µM],GI50 [5] [µM],Compound
78.2,38.4,130,26.1,63.4,28.3,"CCCN1C(=O)C(OC(C)=O)C(OC(C)=O)C(OC(C)=O)C1CNC(=O)Nc1ccc(F)cc1 [Compound No. 34, 2,3,4-Tri-O-acetyl-6-N-{[4-fluorophenyl]aminocarbonylamino}-N-propyl-D-gluco-δ-lactam]"
39,14.1,48.2,32.4,27.7,22,"CCCN1C(=O)[C@H](O)[C@@H](O)[C@H](O)[C@H]1CNC(=O)CN1CCN(C)CC1 [Compound No. 68, 6-N-{2-[(N-Methyl)piperazinyl]acetyl}-N-propyl-D-gluco-δ-lactam]"
11.1,2.8,5.1,10.3,17.3,15.4,CCCN1C[C@H](OCc2ccccc2)[C@@H](OCc2ccccc2)[C@H](OCc2ccccc2)[C@H]1CNC(=O)Nc1ccc(F)cc1F [Compound No. 37]
24.8,23.5,8.5,9.9,17.5,12.5,"C=CCN1C(=O)C(OCc2ccccc2)C(OCc2ccccc2)C(OCc2ccccc2)C1CN1C(=O)CCCC1=O [Compound No. 82, N-Allyl-2,3,4-tri-O-benzyl-6-(2,6-diketopiperidino)-D-gluco-δ-lactam]"
52.7,24.1,25.1,34.1,56.8,47.1,"CCCN1C(=O)[C@H](OC(C)=O)[C@@H](OC(C)=O)[C@H](OC(C)=O)[C@H]1CNC(=O)Nc1ccccc1 [Compound No. 33, 2,3,4-Tri-O-acetyl-6-N-{[phenyl]aminocarbonylamino}-N-propyl-D-gluco-δ-lactam]"
35.7,2,27.2,9.7,18.4,20.1,"CCCN1C[C@H](OCc2ccccc2)[C@@H](OCc2ccccc2)[C@H](OCc2ccccc2)[C@H]1CNC(=O)Nc1ccc(F)cc1 [Compound No. 40, 2,3,4-Tri-O-benzyl-6-N-{[4-fluorophenyl]aminocarbonylamino}-1,5-dideoxy-1,5-imino-N-propyl glucitol]"
175,103,> 373,232,> 373,> 373,"C=CCN1C(=O)[C@H](OCc2ccccc2)[C@@H](OCc2ccccc2)[C@H](OCc2ccccc2)[C@H]1COC(=S)Nc1ccc2ccccc2c1 [Compound No. 42, N-Allyl-2,3,4-Tri-O-benzyl-6-(2-naphthylithiocarbamate)-D-gluco-δ-lactam]"
14,19.4,8,7.6,9.3,5.8,"CCCN1C(=O)[C@H](O[Si](C)(C)C)[C@@H](O[Si](C)(C)C)[C@H](O[Si](C)(C)C)[C@H]1CNC(=O)Nc1ccccc1 [Compound No. 35, 2,3,4-Tri-O-trimethylsilyl-6-N-{[phenyl]aminocarbonylamino}-N-propyl-D-gluco-δ-lactam]"
104,67.9,31.8,18.8,58.4,12.9,"CCCN1C(=O)[C@H](OCc2ccccc2)[C@@H](OCc2ccccc2)[C@H](OCc2ccccc2)[C@H]1CNC(=O)C12CC3CC(CC(C3)C1)C2 [Compound No. 48, 2,3,4-Tri-O-benzyl-6-(adamantanecarboxamido}-N-propyl-D-gluco-δ-lactam]"
7.2,6.8,0.9,6,0.8,2.9,"CCCN1C(=O)[C@H](OCc2ccccc2)[C@@H](OCc2ccccc2)[C@H](OCc2ccccc2)[C@H]1CNC(=O)CCl [Compound No. 52, 2,3,4-Tri-O-benzyl-6-N-{2-[chloro]-acetyl}-N-propyl-D-gluco-δ-lactam]"

# Second part, the molecule before the results:
Compound,GI50 [1] [µM],GI50 [2] [µM],GI50 (LOX (melanoma)) [µM],GI50 [3] [µM],GI50 [4] [µM],GI50 [5] [µM]
"CCCN1C(=O)C(OCc2ccccc2)C(OCc2ccccc2)C(OCc2ccccc2)C1CNC(=O)Nc1cc(Cl)ccc1OC [Compound No. 15, 2,3,4-Tri-O-benzyl-6-N-{[3-chloro-6-methoxyphenyl]aminocarbonylamino}-N-propyl-D-gluco-δ-lactam]",44.4,41.9,57.2,29.9,53.8,40.8
"CCCN1C(=O)[C@H](OC(C)=O)[C@@H](OC(C)=O)[C@H](OC(C)=O)[C@H]1CNC(=O)Nc1ccc(OC)cc1 [Compound No. 32, 2,3,4-Tri-O-acetyl-6-N-{[4-methoxyphenyl]aminocarbonylamino}-N-propyl-D-gluco-δ-lactam]",55.3,37.7,87.4,74.8,94.4,62
"CCCN1C(=O)[C@H](O)[C@@H](O)[C@H](O)[C@H]1CNC(=O)Nc1ccc(OC)cc1 [Compound No. 27, 6-N-{[p-Methoxyphenyl]aminocarbonylamino}-N-propyl-D-gluco-δ-lactam]",413,232,193,214,481,323
"CCCN1C(=O)[C@H](OCc2ccccc2)[C@@H](OCc2ccccc2)[C@H](OCc2ccccc2)[C@H]1CNC(=O)N1CC2C(C1)C2NC(C)=O (stereo partly drawn) [Compound No. 79, 2,3,4-Tri-O-benzyl-6-N-{(1α,5α,6α)-6-acetylamino-azabicyclo[3.1.0]hexylcarboxamido}-N-propyl-D-gluco-δ-lactam]",18.9,21.8,7.4,18.2,17.9,15.5
"CCCN1C(=O)[C@H](OCc2ccccc2)[C@@H](OCc2ccccc2)[C@H](OCc2ccccc2)[C@H]1CNC(=S)Nc1ccc(Cl)cc1 [Compound No. 21, 2,3,4-Tri-O-benzyl-6-N-{[4-chlorophenyl]aminothiocarbonylamino}-N-propyl-D-gluco-δ-lactam]",6.5,2,2.9,2.4,3.4,3.6
"CCCN1C(=O)[C@H](OCc2ccccc2)[C@@H](OCc2ccccc2)[C@H](OCc2ccccc2)[C@H]1CNC(=O)Nc1ccc(F)cc1 [Compound No. 11, 2,3,4-Tri-O-benzyl-6-N-{[p-fluorophenyl]aminocarbonylamino}-N-propyl-D-gluco-δ-lactam]",2.7,2.7,2.1,2.4,2.6,3.2
"CCCN1C(=O)C(OCc2ccccc2)C(OCc2ccccc2)C(OCc2ccccc2)C1CNC(=O)NC(C)C [Compound No. 20, 2,3,4-Tri-O-benzyl-6-N-{[isopropyl]aminocarbonylamino}-N-propyl-D-gluco-δ-lactam]",15.3,2.6,5.9,4.1,5.5,3.3
"CCCN1C(=O)C(OCc2ccccc2)C(OCc2ccccc2)C(OCc2ccccc2)C1CNC(=O)Nc1ccc(Cl)cc1Cl [Compound No. 19, 2,3,4-Tri-O-benzyl-6-N-{[2,4-dichlorophenyl]aminocarbonylamino}-N-propyl-D-gluco-δ-lactam]",> 592,> 592,81.8,> 592,> 592,> 592
"CCCN1C(=O)[C@H](OCc2ccccc2)[C@@H](OCc2ccccc2)[C@H](OCc2ccccc2)[C@H]1CNC(=O)NC12CC3CC(CC(C3)C1)C2 [Compound No. 23, 2,3,4-Tri-O-benzyl-6-N-{[1-adamantyl]aminocarbonylamino}-N-propyl-D-gluco-δ-lactam]",50,28.7,35.7,5.6,26,4.2
"CCCN1C(=O)C(O)C(O)C(O)C1CNC(=O)NC(C)C [Compound No. 30, 6-N-{[Isopropyl]aminocarbonylamino}-N-propyl-D-gluco-δ-lactam]",119,42.6,226,180,209,100
